The record followed here is patent US12612362B2 (SHANXI MEDICAL UNIVERSITY, priority 2021, dated 2026).

“Also recorded” adds a separate entry of the source.

One assay concerns C57BL/6 mice. Put plainly: Oral glucose tolerance test (OGTT). Format: in vivo. The note with it: n=7.
In assay [1] the test system is pancreas islets of the rats. Description: Insulin secretion of isolated rat pancreas islets (insulin radioimmunoassay). The note with it: for effect of promoting insulin secretion: 30 min incubation, n=7.

With `COc1ccc(C[C@H]2NC[C@H](O)[C@H]2OC(C)=O)cc1` [anisomycin, (2R,3S,4S)-2-[(4-methoxyphenyl)methyl]-3,4-pyrrolidinediol 3-acetate methyl ester], the “tolerance to glucose load (blood glucose curve and AUC in OGTT)” value with C57BL/6 mice (5 mg/kg intraperitoneally, vs control group) was “improved to different extents”. The “glucose reducing effect (blood glucose curve and AUC in OGTT)” value in the assay with C57BL/6 mice (15 mg/kg intraperitoneally, vs control group and 5 mg/kg) is given as “more obvious than 5 mg/kg anisomycin in glucose reducing effect”. For the same compound, the “effect of promoting insulin secretion” value in assay [1] (2.8 mmol/L glucose (2.8G), 10 μM) was “does not have the effect of promoting insulin secretion; also recorded: does not have the effect of promoting secretion of insulin”; in assay [1] (11.1 mmol/L glucose (11.1G), 1 μM), “has the significant effect of promoting insulin secretion”; in assay [1] (11.1 mmol/L glucose (11.1G), 10 μM), “has the significant effect of promoting insulin secretion; also recorded: has the significant effect of promoting secretion of insulin”; in assay [1] (16.7 mmol/L glucose (16.7G), 10 μM) it was “can still promote secretion of insulin with significant difference”. Besides, the “concentration dependence of promoting insulin secretion” value in assay [1] (11.1G, 0.1 μM, 1 μM and 10 μM) is “concentration-dependent effect of promoting insulin secretion”.
